Data taken from publication PMC3006138, “Fexinidazole – A New Oral Nitroimidazole Drug Candidate Entering Clinical Development for the Treatment of Sleeping Sickness” (PLoS Neglected Tropical Diseases, 2010).
Where “and” joins values, the source holds several entries; their conditions need not be identical. Equal values may be shown once.

Columns and labels:
[1] = system: T. b. rhodesiense (STIB 900); experiment: In vitro trypanocidal assay (Alamar Blue); type: cell-based, Trypanosoma brucei rhodesiense; settings: Trypanosoma brucei, 72 h; read-out: IC50
Experimental: 10 µL of Alamar Blue was added for the final 3 h to determine viability. […] The IC50 values were calculated from the sigmoidal inhibition curves. For cytotoxicity, 4×10^4/mL L-6 rat skeletal myoblast cells were used, and incubations and assessments carried out as above.

[2] = Mouse single-dose plasma pharmacokinetics; type: in vivo; settings: for AUC(0-t) / Cmax / AUC(0-inf) / Tmax / half-life / bioavailability / AUC0–24: plasma; for bioavailability: fexinidazole 25 mg/kg po vs 1 mg/kg iv
Experimental: Blood samples were taken via into heparinised collection tubes and, following centrifugation, plasma was removed and stored frozen until required for assay.
All PK evaluations were carried out using validated high performance liquid chromatography (HPLC) and LC-MS assays, as per standard operating procedures of the laboratories involved.
One mouse PK and brain sampling study was carried out by BioDynamics Ltd., Rushden, UK, according to internal Standard Operating Procedures as a non-GLP regulated study, and animals were maintained as required by the “Code of practice for the housing and care of animals used in scientific procedures” (Home Office, London, 1989).
BioDynamics Study No: DND/01
Two groups of female mice were dosed as follows:
Number Treatment Dose (mg/kg) Route
All doses are expressed as free base
Intravenous doses were administered into a lateral tail vein using an appropriately sized syringe and 25G needle and the oral formulation by oral gavage using a polypropylene gavage tube. All doses were given as a single bolus dose at a constant dose volume of 10.0 mL/kg.
1.6 Blood sample collection
At each sampling time point, three animals in each treatment group were deeply anaesthetised using isoflurane and blood samples (approximately 1 mL) taken into individual heparinised tubes by cardiac puncture, following which the animals were killed by cervical fracture. Samples were collected at the following times post-dose:
Following collection, the blood samples were centrifuged (approximately 10000 g, 2 min at 4 °C) and the plasma retained as one aliquot at approximately -70°C prior to analysis of test material concentrations at BioDynamics by LC-MS/MS.
1.7 Collection of terminal brain samples
Following collection of the terminal blood sample the cranium of each mouse was carefully opened and the brain removed. Excess blood was washed from the brain with distilled water and any excess fluid blotted on absorbent paper. The brain was then snap frozen using liquid nitrogen and placed into a suitably labelled container and stored frozen at approximately -70°C pending analysis.
All of the plasma samples together with the brains from the 15 minute time point were analysed for concentrations of the test material and its sulfone and sulfoxide metabolites. In addition the brains from the 5 and 30 minute time points for the intravenously treated and the 30 and 60 minute time points for the orally treated animals were analysed for concentrations of Fexinidazole and its sulfone and sulfoxide metabolites using an LC-MS/MS method developed at BioDynamics.
All samples were treated as temperature sensitive. Blood samples were collected onto wet ice, followed by centrifugation at 4 °C. Plasma and brain samples were snap frozen on dry ice (plasma) or liquid nitrogen (brains) prior to long term storage at less than -70 °C pending analysis.
Summed transitions were used to enhance sensitivity. No instability of the test materials was noted during the course of analysis or on re-injection of the samples into the mass spectrometer under the […]
3. Pharmacokinetic analysis
The plasma concentration vs time curves obtained following intravenous and oral administration of the test compounds to female mice were analysed using WinNonLin (Version 4.1, Scientific Consulting
Inc. USA). The kinetic data were characterised by a non-compartmental analysis (NCA).
The following pharmacokinetic parameters were derived from the profiles: maximum peak plasma concentration (Cmax); the time of maximum observed concentration (Tmax); the terminal half life (T½), and area under the plasma concentration curve (AUC), 3.1.1 Area under the curve (AUC)
The AUC was determined using the linear/log trapezoidal method. A value of zero was used for any plasma concentrations recorded as below the limits of quantification (LLOQ). The AUCinf (observed) was calculated as the area under the curve from the time of dosing extrapolated to time infinity based on the observed concentrations. The AUClast was also determined. […]

[3] = Rat single-dose IV and oral pharmacokinetics; type: in vivo; settings: for AUC(0-t): read-out: AUC0-t(last); for half-life: read-out: t1/2,z (converted)
Experimental: METHODS […] Fexinidazole was given as IV and oral administrations to male Sprague Dawley rats according to the following scheme Rat ID Route Dose (mg/kg) Formulation […] IV dose was administered via the tail vein, the oral dose was administered by gastric gavage. 4.2. […] On the day of dosing, approximately 0.3 mL of blood/sampling time were taken from the cannula using heparinized syringes, transferred immediately into tubes (pre-cooled in an ice/water bath) and centrifuged at […] The separated plasma was split into two aliquots, then stored at -80°C until analysis. […] 4.3. Bioanalytical Method Plasma concentrations of Fexinidazole were determined by a LC-MS-MS method. The lower limit of the bioanalytical method was 5.12 ng/mL. […] Details of the bioanalytical method were reported in Appendix 2 and the analytical performance was reported in Appendix 3. 4.4. […] For the calculations, pre-dose concentrations were set equal to C0.033 and equal to zero after IV and oral administrations, respectively. […] regression line. […] Absolute bioavailability was calculated from the ratio of the average oral to IV dose- normalized AUC0-∞ values. […] Plasma concentrations and pharmacokinetic parameters of Fexinidazole were reported to three significant figures. 5. RESULTS Mean ±SD systemic exposure parameters of Fexinidazole after IV and oral administrations of the compound are reported in Table 1. […] This side […] After oral administration, detectable concentrations of Fexinidazole were measured at the […] Mean ±SD maximal plasma concentration of Fexinidazole was 147 ±37 ng/mL, achieved 2 h post dosing. The concentrations of the compound were detectable up to the end of the experiment (8 h). […] Mean ±SD AUC0-∞ was 662 ±106 ng⋅h/mL. […] 6. CONCLUSIONS After both doses, low variability of the pharmacokinetic parameters of Fexinidazole was observed. […] Report Amendment for Study 0327-2007 2. […] METHODS […] The lower limit of the bioanalytical method was 5.00 ng/mL for both compounds. […] Details of the bioanalytical method are reported in Table 1 and the analytical performances of calibration standards are reported in Tables 2-5. 3.2.

[4] = female, NMRI, mouse, iv, 1 mg/kg, fexinidazole 1 mg/kg iv, read-out: AUC0-24
[5] = female, NMRI, mouse, iv, 1 mg/kg, fexinidazole 1 mg/kg iv, read-out: Cmax
[6] = female, NMRI, mouse, po, 25 mg/kg, fexinidazole 25 mg/kg po, female NMRI mice, read-out: Cmax
[7] = female, NMRI, mouse, po, 25 mg/kg, fexinidazole 25 mg/kg po, read-out: AUC0–24
[8] = female, NMRI, mouse, fexinidazole 1 mg/kg iv
[9] = female, NMRI, mouse, fexinidazole 25 mg/kg po
[10] = Sprague Dawley, plasma, fexinidazole 5 mg/kg IV, male SD rats, read-out: Cmax (C0.033 for parent)
[11] = male, Sprague Dawley, plasma, fexinidazole 5 mg/kg IV
[12] = male, Sprague Dawley, plasma, fexinidazole 10 mg/kg oral
[13] = male, Sprague Dawley, plasma, fexinidazole 10 mg/kg oral, read-out: Cmax

CSc1ccc(OCc2ncc([N+](=O)[O-])n2C)cc1 [Fexinidazole, 1-methyl-2-((p-(methylthio)phenoxy)methyl)-5-nitroimidazole]
IC50 [1]: 0.48 µg/mL to 0.82 µg/mL and 1.71 µM to 2.93 µM
clinical signs ([2]; 1 mg/kg iv or 25 mg/kg po): No clinical signs were observed
AUC(0-t) [2, 4]: 41 ng·h/mL
Cmax [2, 5]: 164 ng/mL
Cmax [2, 6]: 500 ng/mL
AUC(0-t) [2, 7]: 424 ng·h/mL
AUC(0-inf) [2, 8]: 42 ng·h/mL
Tmax [2, 8]: 0.0833 h
half-life [2, 8]: 0.1 h
AUC(0-inf) [2, 9]: 439 ng·h/mL
Tmax [2, 9]: 0.25 h
half-life [2, 9]: 0.8 h
bioavailability ([2]; female, NMRI, mouse): 41.4%
bioavailability ([2]; female, mouse): 41%
Cmax ([2]; fexinidazole 25 mg/kg po, female NMRI mice): 500 ng/mL
Cmax [3, 10]: 3660 ± 217 ng/mL
clearance ([3]; male, Sprague Dawley, plasma, 5 mg/kg IV): 76.2 mL/min/kg
Vd ([3]; male, Sprague Dawley, plasma, 5 mg/kg IV, read-out: Vss): 4.69 L/kg
AUC(0-t) [3, 11]: 1160 ng·h/mL
half-life [3, 11]: 1.71 h
Tmax [3, 12]: 2 h
AUC(0-t) [3, 12]: 631 ng·h/mL
Cmax [3, 13]: 147 ± 36.6 ng/mL
half-life [3, 12]: 1.72 h
AUC(0-inf) ([3]; male, Sprague Dawley, plasma, iv, 5 mg/kg, fexinidazole 5 mg/kg IV, read-out: AUC0-∞): 1200 ± 26.5 ng·h/mL
bioavailability ([3]; male, Sprague Dawley, plasma, oral, 10 mg/kg, oral 10 mg/kg vs IV 5 mg/kg, read-out: Absolute bioavailability F): 30%
AUC(0-inf) ([3]; male, Sprague Dawley, plasma, po, 10 mg/kg, fexinidazole 10 mg/kg oral, read-out: AUC0-∞): 662 ± 106 ng·h/mL
AUC(0-inf) ([3]; male, Sprague Dawley, plasma, po, 10 mg/kg, oral, normalized to 1 mg/kg, read-out: AUC0-∞, norm): 65.1 ng·h/mL
Absolute bioavailability F ([3]; oral 10 mg/kg vs IV 5 mg/kg): 29.7%

Cn1c([N+](=O)[O-])cnc1COc1ccc([S+](C)[O-])cc1 (stereo not shown) [Fexinidazole sulfoxide]
IC50 [1]: 0.41 µg/mL to 0.49 µg/mL and 1.33 µM to 1.65 µM
AUC(0-t) [2, 4]: 1590 ng·h/mL
Cmax [2, 5]: 918 ng/mL
Cmax [2, 6]: 14200 ng/mL
AUC(0-t) [2, 7]: 45000 ng·h/mL
AUC(0-inf) [2, 8]: 1560 ng·h/mL
Tmax [2, 8]: 0.25 h
half-life [2, 8]: 0.6 h
AUC(0-inf) [2, 9]: 45000 ng·h/mL
Tmax [2, 9]: 0.5 h
half-life [2, 9]: 1 h
AUC0–24 ([2]; fexinidazole 25 mg/kg po, listed as Sulfoxide metabolite): 45031 ng·h/mL
Cmax [3, 10]: 3070 ng/mL
Tmax [3, 11]: 1 h
AUC(0-t) [3, 11]: 9440 ng·h/mL
Tmax [3, 12]: 2 h
AUC(0-t) [3, 12]: 16200 ng·h/mL
Cmax [3, 13]: 3520 ng/mL

Cn1c([N+](=O)[O-])cnc1COc1ccc(S(C)(=O)=O)cc1 [Fexinidazole sulfone]
IC50 [1]: 0.35 µg/mL to 0.4 µg/mL and 1.14 µM to 1.3 µM
AUC(0-t) [2, 4]: 7990 ng·h/mL
Cmax [2, 5]: 511 ng/mL
AUC(0-t) [2, 7]: 96300 ng·h/mL
Tmax [2, 8]: 2 h
AUC(0-inf) [2, 9]: 96300 ng·h/mL
Tmax [2, 9]: 4 h
half-life [2, 9]: 1.7 h
bioavailability ([2]; female, NMRI, mouse): 48.8%
Cmax ([2]; fexinidazole 1 mg/kg iv): 790.4 ng/mL
Cmax ([2]; fexinidazole 25 mg/kg po, female NMRI mice, listed as Sulfone): 13651.3 ng/mL
Cmax ([2]; fexinidazole 25 mg/kg po, female NMRI mice, listed as Sulfone metabolite): 13651 ng/mL
Cmax ([2]; fexinidazole 25 mg/kg po, female NMRI mice, listed as sulfone): 6599.6 ng/mL
AUC0–24 ([2]; fexinidazole 25 mg/kg po, listed as Sulfone metabolite): 96286 ng·h/mL
Cmax [3, 10]: 2090 ng/mL
Tmax [3, 11]: 5.33 h
AUC(0-t) [3, 11]: 9590 ng·h/mL
Tmax [3, 12]: 6 h
AUC(0-t) [3, 12]: 14300 ng·h/mL
Cmax [3, 13]: 2660 ng/mL
